Each compound was assayed on Hyp1-NLuc Plasmodium falciparum-infected erythrocytes (new permeability pathway, NPP) (assay: microbe, parasite or virus in culture). Details: Erythrocyte, 0.33 h, read-out: Mean RLU at 28 min (As % of DMSO control).
CCN(CC)CCCNc1nc(-c2ccc(Cl)cc2)nc2ccccc12 [MMV665961] was tested, and the activity at 2 µM was 103%.
Compound CCOc1c(Cl)cc(CNC(C)C(O)c2ccccc2)cc1OC (stereo not shown) [MMV665857] has an activity at 2 µM of 100%.
With O=C1c2ccccc2-c2nnc(-c3ccc(Br)cc3)cc21 [MMV665934] the activity at 2 µM was 92.6%.
In the case of N=c1n(CCN2CCCCC2)c2ccccc2n1CC(O)c1cccc(Br)c1 (stereo not shown) [MMV665902], the activity at 2 µM is reported as 101%.
Compound CCc1ccc(Nc2cc(C)nc3nc(C)nn23)cc1 [MMV007374] has an activity at 2 µM of 113%.
COc1ccc(Nc2nc(NCc3ccccc3)c3ccccc3n2)cc1 [MMV000963] was tested, and the activity at 2 µM was 103%.
In the case of c1ccc2c(NCCc3c[nH]c4ccccc34)c3ccccc3nc2c1 [MMV006513], the activity at 2 µM is reported as 96.2%.
For CCOc1ccc2c(c1)CN(Cc1ccc(Cl)cc1)CO2 [MMV000443], the activity at 2 µM was 99.2%.
For COc1cc2c(cc1OC)C1=NNC(=O)C1=NC(C)(C)C2 [MMV084940], the activity at 2 µM was 101%.
In the case of COc1ccc(-c2cc3c(SCC(=O)Nc4cc(C(F)(F)F)ccc4Cl)nccn3n2)cc1 [MMV396679], the activity at 2 µM is reported as 106%.
Compound COc1ccc(CCn2c(=N)c(C(=O)NCc3cccnc3)cc3c(=O)n4cccc(C)c4nc32)cc1 [MMV667488] has an activity at 2 µM of 105%.
In the case of CC(C)(C)c1ccc(C(=O)Nc2c3c(nn2-c2cccc(Cl)c2)CSC3)cc1 [MMV666123], the activity at 2 µM is reported as 104%.
With Cc1ccnc(NC(c2cccc(OCc3ccccc3)c2)c2ccc3cccnc3c2O)c1 (stereo not shown) [MMV000720] the activity at 2 µM was 102%.
CCOC(=O)c1cn(CC)c2cc(N(C)CCc3ccc(OC)c(OC)c3)c(F)cc2c1=O [MMV665977] showed an activity at 2 µM of 106%.
CCOC(=O)c1cnc2ccc(CC)cc2c1O [MMV007116] was tested, and the activity at 2 µM was 103%.
In the case of CCN(CC)c1ccc(NC(=O)c2cccs2)cc1 [MMV009060], the activity at 2 µM is reported as 103%.
c1ccc(C2=Nc3ccccc3N=C(c3ccccc3)c3ccccc32)cc1 [MMV007113] gave an activity at 2 µM of 103%.
In the case of CCOc1cc(CNC(C)C(O)c2ccccc2)cc(Cl)c1OCC (stereo not shown) [MMV396633], the activity at 2 µM is reported as 113%.
For COc1ccc(C(=O)C(CCC(CNC(C)(C)C)C(=O)c2ccc(OC)cc2)CNC(C)(C)C)cc1 (stereo not shown) [MMV007591], the activity at 2 µM was 103%.
With O=C(Cc1ccccc1)NC(c1ccc(Cl)cc1)c1c(O)ccc2ccccc12 (stereo not shown) [MMV665972] the activity at 2 µM was 68.8%.
In the case of c1ccc(-c2ccc(-c3nc4ccccc4[nH]3)cc2)cc1 [MMV665891], the activity at 2 µM is reported as 109%.
Compound FC(F)(F)c1cccc(Nc2nc(-c3ccccc3)nc3ncccc23)c1 [MMV665798] has an activity at 2 µM of 103%.
Work on CC1CCN(Cc2ccc(NC(=O)c3cc4ccc5cccnc5c4[nH]3)cc2)CC1 [MMV020549] yielded an activity at 2 µM of 102%.
C[n+]1c2ccccc2nc2ccc(NCCO)cc21 [MMV396693] was tested, and the activity at 2 µM was 101%.
With CCCN(CCC)CCCNC(=O)c1cc2c(-c3ccc(OC)c(OC)c3)nn(C)c2s1 [MMV000561] the activity at 2 µM was 107%.
Work on CCOC(=O)C1=C(C)N=c2sc(=Cc3cc(Cl)ccc3O)c(=O)n2C1c1ccc(OC)cc1 (stereo not shown) [MMV665971] yielded an activity at 2 µM of 101%.
In the case of COc1ccc(-c2nonc2NC(=O)c2cccc(Cl)c2)cc1OC [MMV020660], the activity at 2 µM is reported as 108%.
CCOC(=O)c1ccc2nc(-c3ccccc3)cc(O)c2c1 [MMV006457] showed an activity at 2 µM of 104%.
CC1CCCCN1CCCNC(=O)c1ccc2c(c1)sc1nc(-c3ccc(F)cc3)cn12 (stereo not shown) [MMV000634] showed an activity at 2 µM of 94.7%.
Compound Cc1ccc(N2C3c4ccccc4N(S(=O)(=O)c4ccc(C)cc4)C2c2ccccc2N3S(=O)(=O)c2ccc(C)cc2)cc1 [MMV007160] has an activity at 2 µM of 103%.
COc1ccc(C2NCCc3c2[nH]c2ccccc32)cc1CN1CCN(c2ccc(F)cc2)CC1 (stereo not shown) [MMV019690] was tested, and the activity at 2 µM was 106%.
Oc1ccccc1CNCC12CC3CC(CC(C3)C1)C2 [MMV020788] gave an activity at 2 µM of 108%.
Compound CCCc1c(C)nc2ccc(Br)cc2c1O [MMV666095] has an activity at 2 µM of 104%.
Compound CCN(CC)CCNc1ccnc2cc3ccccc3cc12 [MMV006303] has an activity at 2 µM of 109%.
In the case of O=C(Nc1cccc(-c2nc3ccccc3[nH]2)c1)c1cccc(NC(=O)c2ccco2)c1 [MMV665883], the activity at 2 µM is reported as 107%.

Each compound was assayed on Hyp1-NLuc Plasmodium falciparum-infected erythrocytes (new permeability pathway, NPP) (assay: microbe, parasite or virus in culture). Details: Erythrocyte, 0.33 h, read-out: % of control remaining.
For CCN(CC)CCCNc1nc(-c2ccc(Cl)cc2)nc2ccccc12 [MMV665961], the activity at 2 µM was 101%.
CCOc1c(Cl)cc(CNC(C)C(O)c2ccccc2)cc1OC (stereo not shown) [MMV665857] showed an activity at 2 µM of 108%.
O=C1c2ccccc2-c2nnc(-c3ccc(Br)cc3)cc21 [MMV665934] was tested, and the activity at 2 µM was 97.2%.
Work on N=c1n(CCN2CCCCC2)c2ccccc2n1CC(O)c1cccc(Br)c1 (stereo not shown) [MMV665902] yielded an activity at 2 µM of 115%.
CCc1ccc(Nc2cc(C)nc3nc(C)nn23)cc1 [MMV007374] gave an activity at 2 µM of 114%.
COc1ccc(Nc2nc(NCc3ccccc3)c3ccccc3n2)cc1 [MMV000963] was tested, and the activity at 2 µM was 106%.
With c1ccc2c(NCCc3c[nH]c4ccccc34)c3ccccc3nc2c1 [MMV006513] the activity at 2 µM was 106%.
Work on CCOc1ccc2c(c1)CN(Cc1ccc(Cl)cc1)CO2 [MMV000443] yielded an activity at 2 µM of 94.2%.
In the case of COc1cc2c(cc1OC)C1=NNC(=O)C1=NC(C)(C)C2 [MMV084940], the activity at 2 µM is reported as 101%.
With COc1ccc(-c2cc3c(SCC(=O)Nc4cc(C(F)(F)F)ccc4Cl)nccn3n2)cc1 [MMV396679] the activity at 2 µM was 105%.
In the case of COc1ccc(CCn2c(=N)c(C(=O)NCc3cccnc3)cc3c(=O)n4cccc(C)c4nc32)cc1 [MMV667488], the activity at 2 µM is reported as 95.6%.
Compound CC(C)(C)c1ccc(C(=O)Nc2c3c(nn2-c2cccc(Cl)c2)CSC3)cc1 [MMV666123] has an activity at 2 µM of 108%.
Cc1ccnc(NC(c2cccc(OCc3ccccc3)c2)c2ccc3cccnc3c2O)c1 (stereo not shown) [MMV000720] gave an activity at 2 µM of 108%.
Work on CCOC(=O)c1cn(CC)c2cc(N(C)CCc3ccc(OC)c(OC)c3)c(F)cc2c1=O [MMV665977] yielded an activity at 2 µM of 87.8%.
Compound CCOC(=O)c1cnc2ccc(CC)cc2c1O [MMV007116] has an activity at 2 µM of 85.3%.
For CCN(CC)c1ccc(NC(=O)c2cccs2)cc1 [MMV009060], the activity at 2 µM was 111%.
c1ccc(C2=Nc3ccccc3N=C(c3ccccc3)c3ccccc32)cc1 [MMV007113] showed an activity at 2 µM of 111%.
CCOc1cc(CNC(C)C(O)c2ccccc2)cc(Cl)c1OCC (stereo not shown) [MMV396633] gave an activity at 2 µM of 114%.
With COc1ccc(C(=O)C(CCC(CNC(C)(C)C)C(=O)c2ccc(OC)cc2)CNC(C)(C)C)cc1 (stereo not shown) [MMV007591] the activity at 2 µM was 102%.
O=C(Cc1ccccc1)NC(c1ccc(Cl)cc1)c1c(O)ccc2ccccc12 (stereo not shown) [MMV665972] was tested, and the activity at 2 µM was 69.4%.
For c1ccc(-c2ccc(-c3nc4ccccc4[nH]3)cc2)cc1 [MMV665891], the activity at 2 µM was 122%.
FC(F)(F)c1cccc(Nc2nc(-c3ccccc3)nc3ncccc23)c1 [MMV665798] was tested, and the activity at 2 µM was 117%.
In the case of CC1CCN(Cc2ccc(NC(=O)c3cc4ccc5cccnc5c4[nH]3)cc2)CC1 [MMV020549], the activity at 2 µM is reported as 90.5%.
Compound C[n+]1c2ccccc2nc2ccc(NCCO)cc21 [MMV396693] has an activity at 2 µM of 100%.
Work on CCCN(CCC)CCCNC(=O)c1cc2c(-c3ccc(OC)c(OC)c3)nn(C)c2s1 [MMV000561] yielded an activity at 2 µM of 106%.
CCOC(=O)C1=C(C)N=c2sc(=Cc3cc(Cl)ccc3O)c(=O)n2C1c1ccc(OC)cc1 (stereo not shown) [MMV665971] was tested, and the activity at 2 µM was 102%.
Compound COc1ccc(-c2nonc2NC(=O)c2cccc(Cl)c2)cc1OC [MMV020660] has an activity at 2 µM of 109%.
In the case of CCOC(=O)c1ccc2nc(-c3ccccc3)cc(O)c2c1 [MMV006457], the activity at 2 µM is reported as 93.7%.
CC1CCCCN1CCCNC(=O)c1ccc2c(c1)sc1nc(-c3ccc(F)cc3)cn12 (stereo not shown) [MMV000634] was tested, and the activity at 2 µM was 67.5%.
Cc1ccc(N2C3c4ccccc4N(S(=O)(=O)c4ccc(C)cc4)C2c2ccccc2N3S(=O)(=O)c2ccc(C)cc2)cc1 [MMV007160] was tested, and the activity at 2 µM was 103%.
Work on COc1ccc(C2NCCc3c2[nH]c2ccccc32)cc1CN1CCN(c2ccc(F)cc2)CC1 (stereo not shown) [MMV019690] yielded an activity at 2 µM of 113%.
In the case of Oc1ccccc1CNCC12CC3CC(CC(C3)C1)C2 [MMV020788], the activity at 2 µM is reported as 109%.
CCCc1c(C)nc2ccc(Br)cc2c1O [MMV666095] showed an activity at 2 µM of 113%.
CCN(CC)CCNc1ccnc2cc3ccccc3cc12 [MMV006303] was tested, and the activity at 2 µM was 107%.
O=C(Nc1cccc(-c2nc3ccccc3[nH]2)c1)c1cccc(NC(=O)c2ccco2)c1 [MMV665883] showed an activity at 2 µM of 102%.

Source: publication PMC5118696, “Identification of inhibitors that dually target the new permeability pathway and dihydroorotate dehydrogenase in the blood stage of Plasmodium falciparum” (Scientific Reports, 2016)
